Here are results for 2 compounds from ChEMBL document CHEMBL1681722, “5-oxo-15-HETE: total synthesis and bioactivity” (Bioorg Med Chem Lett, 2011).

Activity calls are given as the source filed them. The calls are words filed in the database; no cut-off is given here.

Data set [1] addresses T1, Oxoeicosanoid receptor 1 (Homo sapiens, UniProt Q8TDS5). The data set is described as follows: Agonist activity at 5-oxo-ETE receptor in human neutrophils assessed as stimulation of ca2+ mobilization. The format is functional. In general terms: Calcium assays in cells follow changes in intracellular calcium, usually with a dye or a luminescent sensor.
For data set [2], the target named is T1, Oxoeicosanoid receptor 1. The data set is described as follows: Agonist activity at 5-oxo-ETE receptor in human neutrophils assessed as stimulation of ca2+ mobilization at 100 nM in presence of 5-oxo-ETE. The format is functional.
The nature of data set [3]: Stability of the compound at -80 degC after 3 years by reversed-phase HPLC. The format is physicochemical. The conditions noted are these: 26298 h.

T1 sequence (Q8TDS5 whole entry): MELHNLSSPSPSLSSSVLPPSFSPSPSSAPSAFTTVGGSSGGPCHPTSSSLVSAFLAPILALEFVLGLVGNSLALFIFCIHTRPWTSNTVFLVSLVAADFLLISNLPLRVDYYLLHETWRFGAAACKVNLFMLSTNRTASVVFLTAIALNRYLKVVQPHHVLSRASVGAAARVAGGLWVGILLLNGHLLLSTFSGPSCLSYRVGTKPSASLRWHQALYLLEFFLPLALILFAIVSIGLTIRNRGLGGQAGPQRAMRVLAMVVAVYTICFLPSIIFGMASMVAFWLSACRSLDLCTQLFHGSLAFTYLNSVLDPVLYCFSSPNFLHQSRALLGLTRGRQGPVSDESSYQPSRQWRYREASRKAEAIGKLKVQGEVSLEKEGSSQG

In the case of `CCCCC/C=C\C/C=C\C/C=C\C=C\C(=O)CCCC(=O)O` [5-OXO-ETE], the EC50 at Oxoeicosanoid receptor 1 [1] was determined as 0.007 µM.
For the compound `CCCCC[C@H](O)/C=C/C=C\C/C=C\C=C\C(=O)CCCC(=O)O`, at Oxoeicosanoid receptor 1 [1], the concentration giving a half-maximal response (EC50) turned out to be 0.056 µM. Also, at Oxoeicosanoid receptor 1 [2], the outcome was inactive. Moreover, the Stability result in data set [3] was “Stable”.

A word on the EC50: it is the concentration needed to bring the measured effect to its halfway point.
